This note sets out measurements from ChEMBL document CHEMBL1123932, “Berbanes: a new class of selective alpha 2-adrenoceptor antagonists” (J Med Chem, 1987).

In test [1] the target is T1, Adrenergic receptor alpha-1 (Rattus norvegicus, UniProt P15823+P23944+P43140).
T1 sequence (P15823 whole entry): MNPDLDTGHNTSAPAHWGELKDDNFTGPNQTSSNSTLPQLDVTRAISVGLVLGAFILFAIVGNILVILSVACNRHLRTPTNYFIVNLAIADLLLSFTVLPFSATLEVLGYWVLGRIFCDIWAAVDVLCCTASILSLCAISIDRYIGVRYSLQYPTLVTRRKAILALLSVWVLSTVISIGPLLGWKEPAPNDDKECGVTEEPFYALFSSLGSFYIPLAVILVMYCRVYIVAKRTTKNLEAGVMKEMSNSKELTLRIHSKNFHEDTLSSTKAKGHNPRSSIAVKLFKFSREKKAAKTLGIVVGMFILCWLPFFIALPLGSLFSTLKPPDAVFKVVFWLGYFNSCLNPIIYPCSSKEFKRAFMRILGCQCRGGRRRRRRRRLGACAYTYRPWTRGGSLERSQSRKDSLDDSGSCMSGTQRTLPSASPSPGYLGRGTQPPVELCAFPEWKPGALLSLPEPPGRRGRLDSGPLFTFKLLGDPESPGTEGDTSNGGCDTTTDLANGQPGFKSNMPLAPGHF
T1 sequence (P23944 whole entry): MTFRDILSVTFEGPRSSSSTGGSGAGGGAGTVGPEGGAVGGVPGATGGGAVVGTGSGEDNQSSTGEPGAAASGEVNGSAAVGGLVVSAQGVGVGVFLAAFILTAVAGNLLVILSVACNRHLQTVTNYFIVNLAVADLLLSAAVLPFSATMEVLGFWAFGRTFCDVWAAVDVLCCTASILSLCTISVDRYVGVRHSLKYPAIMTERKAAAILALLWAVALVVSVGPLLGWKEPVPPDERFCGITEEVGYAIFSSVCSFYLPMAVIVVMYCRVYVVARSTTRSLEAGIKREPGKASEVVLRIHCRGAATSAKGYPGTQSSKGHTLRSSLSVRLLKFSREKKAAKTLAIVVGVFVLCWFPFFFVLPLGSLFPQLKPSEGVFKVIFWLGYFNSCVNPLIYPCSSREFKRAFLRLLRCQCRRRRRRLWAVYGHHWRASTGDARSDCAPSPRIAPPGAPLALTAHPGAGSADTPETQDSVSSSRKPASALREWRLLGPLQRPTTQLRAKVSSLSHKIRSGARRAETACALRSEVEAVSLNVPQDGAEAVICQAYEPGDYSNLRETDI
T1 sequence (P43140 whole entry): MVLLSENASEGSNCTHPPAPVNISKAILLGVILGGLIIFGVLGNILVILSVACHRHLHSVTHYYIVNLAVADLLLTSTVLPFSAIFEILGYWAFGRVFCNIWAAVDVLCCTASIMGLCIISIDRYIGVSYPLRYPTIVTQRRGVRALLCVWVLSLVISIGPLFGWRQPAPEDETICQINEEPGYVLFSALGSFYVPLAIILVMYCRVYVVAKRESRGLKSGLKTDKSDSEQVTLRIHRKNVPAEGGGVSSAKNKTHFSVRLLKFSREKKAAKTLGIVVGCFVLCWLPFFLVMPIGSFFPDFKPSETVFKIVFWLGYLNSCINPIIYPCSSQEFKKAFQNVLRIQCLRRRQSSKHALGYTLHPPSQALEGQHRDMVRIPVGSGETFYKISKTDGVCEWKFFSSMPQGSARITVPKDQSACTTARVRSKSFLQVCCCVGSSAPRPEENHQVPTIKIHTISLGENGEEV
The experiment in a line: Antagonistic activity against postsynaptic Alpha-1 adrenergic receptor in isolated rat vas deferens using (-)-phenylephrine as agonist. The test is classed as functional, tissue-based.

Test [2] addresses T2, Adrenergic receptor alpha-2 (Rattus norvegicus, UniProt P22086+P19328+P22909).
T2 sequence (P22086 whole entry): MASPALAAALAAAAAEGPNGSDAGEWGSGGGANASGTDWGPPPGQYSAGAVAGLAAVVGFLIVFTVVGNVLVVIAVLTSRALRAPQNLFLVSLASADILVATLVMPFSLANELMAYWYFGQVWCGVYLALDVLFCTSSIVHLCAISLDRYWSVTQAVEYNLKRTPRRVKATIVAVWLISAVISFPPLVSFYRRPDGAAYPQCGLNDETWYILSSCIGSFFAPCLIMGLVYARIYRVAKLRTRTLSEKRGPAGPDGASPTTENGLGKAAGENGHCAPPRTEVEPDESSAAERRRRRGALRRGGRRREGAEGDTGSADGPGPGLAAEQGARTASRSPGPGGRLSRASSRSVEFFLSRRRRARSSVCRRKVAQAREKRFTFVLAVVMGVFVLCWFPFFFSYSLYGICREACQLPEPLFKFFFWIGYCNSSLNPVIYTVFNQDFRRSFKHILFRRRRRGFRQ
T2 sequence (P19328 whole entry): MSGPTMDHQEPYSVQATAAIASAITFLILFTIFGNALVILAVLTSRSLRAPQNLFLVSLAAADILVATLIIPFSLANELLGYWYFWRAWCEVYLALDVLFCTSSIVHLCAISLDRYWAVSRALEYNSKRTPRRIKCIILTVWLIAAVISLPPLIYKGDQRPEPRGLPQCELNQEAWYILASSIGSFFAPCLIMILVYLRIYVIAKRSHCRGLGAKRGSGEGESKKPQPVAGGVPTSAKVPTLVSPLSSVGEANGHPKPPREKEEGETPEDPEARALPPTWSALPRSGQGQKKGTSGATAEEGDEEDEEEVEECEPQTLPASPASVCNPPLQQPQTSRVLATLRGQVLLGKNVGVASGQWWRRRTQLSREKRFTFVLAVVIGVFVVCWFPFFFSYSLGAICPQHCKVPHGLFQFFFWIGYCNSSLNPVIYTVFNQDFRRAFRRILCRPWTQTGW
T2 sequence (P22909 whole entry): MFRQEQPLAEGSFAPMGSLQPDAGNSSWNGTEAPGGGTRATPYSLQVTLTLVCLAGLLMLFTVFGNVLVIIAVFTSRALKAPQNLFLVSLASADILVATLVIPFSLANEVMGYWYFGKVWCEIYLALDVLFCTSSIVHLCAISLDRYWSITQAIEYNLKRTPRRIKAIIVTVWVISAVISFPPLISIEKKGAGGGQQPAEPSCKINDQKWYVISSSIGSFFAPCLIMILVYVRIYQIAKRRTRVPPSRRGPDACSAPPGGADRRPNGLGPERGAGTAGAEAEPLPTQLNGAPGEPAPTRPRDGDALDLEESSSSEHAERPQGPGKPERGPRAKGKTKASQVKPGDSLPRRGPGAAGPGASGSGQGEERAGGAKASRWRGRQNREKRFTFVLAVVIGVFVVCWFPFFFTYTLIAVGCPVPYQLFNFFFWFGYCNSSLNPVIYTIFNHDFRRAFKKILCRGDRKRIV
Put plainly: Antagonistic activity against presynaptic alpha-2 adrenergic receptor in isolated rat vas deferens using xylazine as agonist. The test is classed as functional, tissue-based.

Test [3] deals with Adrenergic receptor alpha-2 (Cavia porcellus). The experiment in a line: Antagonistic activity against adrenergic alpha-2 receptor in longitudinal muscle strip of the guinea pig ileum using l-norepinephrine as agonist.

In turn, `CCOC(=O)[C@H]1[C@H]2C[C@H]3c4cc5c(cc4CCN3C[C@H]2CC[C@H]1O)OCO5` displayed a pA2 in test [1] of 5.51. With `COC(=O)[C@@H]1C[C@@H]2CN3CCc4cc5c(cc4[C@@H]3C[C@@H]2C[C@@H]1O)OCO5`, in test [1], the pA2 was 4.8.

For `COC(=O)[C@H]1C[C@H]2CN3CCc4cc5c(cc4[C@@H]3C[C@@H]2C[C@@H]1O)OCO5`, the pA2 in test [1] is 5.98. As to `Oc1cc2c(cc1O)[C@@H]1C[C@@H]3C[C@H](O)CC[C@@H]3CN1CC2`, the pA2 is on record as 5.74 in test [2] and below 4 in test [1]. The molecule `OC[C@@H]1[C@H]2C[C@H]3c4cc5c(cc4CCN3C[C@@H]2CC[C@H]1O)OCO5` yielded a pA2 in test [1] of 5.25.

Take `COc1cc2c(cc1OC)[C@@H]1C[C@@H]3C[C@H](OC(C)=O)CC[C@@H]3CN1CC2`: the pA2 is 6.61 in test [2], 6.19 in test [3] and 4.54 in test [1]. Regarding `N#C[C@@H]1C[C@@H]2CN3CCc4cc5c(cc4[C@@H]3C[C@@H]2C[C@@H]1O)OCO5`, the values for the pA2 in test [2], in test [3] and in test [1] were 6.1, 6.67 and below 4, respectively. For `CC(=O)O[C@@H]1CC[C@@H]2CN3CCc4cc5c(cc4[C@@H]3C[C@@H]2C1)OCO5`, the results for the pA2 in test [2], in test [3] and in test [1] were 7.3, 8.21 and 4.55, respectively. With `OC[C@@H]1C[C@@H]2CN3CCc4cc5c(cc4[C@@H]3C[C@@H]2C[C@@H]1O)OCO5`, the pA2 in test [1] is below 4. With `COc1cc2c(cc1OC)[C@@H]1C[C@@H]3C[C@H](O)CC[C@@H]3CN1CC2`, the pA2 is 6.31 in test [2], below 4 in test [3] and below 4 in test [1]. Consider `CCOc1cc2c(cc1OCC)[C@@H]1C[C@@H]3C[C@H](O)CCC3CN1CC2` (stereo partly specified), for which the pA2 in test [2] is 6.41; in test [1] it was below 4.

For orientation: pA2 means a measure of antagonist potency on a negative log scale. Low readings indicate a weaker antagonist, high ones a more potent antagonist.
